Experimental data taken from patent US20200170975A1 (Strongbridge Dublin Limited, priority 2018, published 2020).
Like-named read-outs stand apart in the source and are kept apart here. Each block holds one compound with its values, some of them ahead of it.

What was measured:
MATE2-K = MATE2-K (Homo sapiens, UniProt Q86VL8); details: [14C]-Metformin 10 μM
Description: (§1) [^14C]-Metformin (1 mM) was provided as a solid and was prepared in Hank's balanced salt solution (HBSS).
(§2) Cells were plated onto standard 24-well tissue culture plates in cell culture medium 1 to 3 days before the experiment. MATE1 and MATE2-K and control cells were incubated with butyric acid (10 mM) for 24 hours before the experiment to inhibit suppression of the transporter.

MATE1 = target: T1, MATE1 (Homo sapiens, UniProt Q96FL8)
T1 sequence (Q96FL8 1-570): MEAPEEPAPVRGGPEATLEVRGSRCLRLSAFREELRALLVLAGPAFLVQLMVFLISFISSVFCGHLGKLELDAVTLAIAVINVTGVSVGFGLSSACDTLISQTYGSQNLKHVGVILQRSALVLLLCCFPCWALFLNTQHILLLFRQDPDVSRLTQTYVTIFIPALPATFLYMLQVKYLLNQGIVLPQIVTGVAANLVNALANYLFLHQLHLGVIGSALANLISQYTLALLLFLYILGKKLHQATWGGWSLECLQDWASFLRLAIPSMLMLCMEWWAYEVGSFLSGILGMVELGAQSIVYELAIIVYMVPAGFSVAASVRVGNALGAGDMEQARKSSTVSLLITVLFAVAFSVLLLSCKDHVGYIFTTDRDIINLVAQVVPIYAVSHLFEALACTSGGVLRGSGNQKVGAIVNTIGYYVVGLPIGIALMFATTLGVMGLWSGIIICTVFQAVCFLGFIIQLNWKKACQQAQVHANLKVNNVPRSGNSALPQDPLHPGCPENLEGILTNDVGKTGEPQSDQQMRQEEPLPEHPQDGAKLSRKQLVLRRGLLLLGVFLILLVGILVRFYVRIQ
Description: as §1, §2

BCRP = target: T2, BCRP (Homo sapiens, UniProt Q9UNQ0); assay: BCRP inhibition: bidirectional transport of prazosin across MDCKII-BCRP and control MDCKII cells
T2 sequence (Q9UNQ0 1-655): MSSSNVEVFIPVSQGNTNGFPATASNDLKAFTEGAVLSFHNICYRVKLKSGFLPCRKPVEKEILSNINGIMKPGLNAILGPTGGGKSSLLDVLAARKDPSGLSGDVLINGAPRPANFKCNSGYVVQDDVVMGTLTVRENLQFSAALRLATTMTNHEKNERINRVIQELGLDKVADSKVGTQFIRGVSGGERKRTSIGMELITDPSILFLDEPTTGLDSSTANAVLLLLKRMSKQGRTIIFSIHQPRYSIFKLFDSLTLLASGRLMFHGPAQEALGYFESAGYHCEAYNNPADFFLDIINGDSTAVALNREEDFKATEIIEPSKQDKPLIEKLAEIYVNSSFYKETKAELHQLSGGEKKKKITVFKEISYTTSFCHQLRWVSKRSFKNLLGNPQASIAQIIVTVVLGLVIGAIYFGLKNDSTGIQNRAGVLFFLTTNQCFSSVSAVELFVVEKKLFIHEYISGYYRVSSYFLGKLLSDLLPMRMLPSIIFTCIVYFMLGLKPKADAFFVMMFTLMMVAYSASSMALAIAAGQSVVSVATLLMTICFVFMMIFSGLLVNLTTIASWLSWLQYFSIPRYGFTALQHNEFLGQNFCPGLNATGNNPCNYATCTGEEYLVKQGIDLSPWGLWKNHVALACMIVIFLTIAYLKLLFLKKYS
Excerpt: MDCKII P-gp, MDCKII BCRP and control MDCKII cells were purchased from the Netherlands Cancer Institute.

P-gp = P-gp (Homo sapiens, UniProt P08183); assay: P-gp inhibition: bidirectional transport of digoxin across Caco-2 cells
P-gp, sequence (P08183 whole entry): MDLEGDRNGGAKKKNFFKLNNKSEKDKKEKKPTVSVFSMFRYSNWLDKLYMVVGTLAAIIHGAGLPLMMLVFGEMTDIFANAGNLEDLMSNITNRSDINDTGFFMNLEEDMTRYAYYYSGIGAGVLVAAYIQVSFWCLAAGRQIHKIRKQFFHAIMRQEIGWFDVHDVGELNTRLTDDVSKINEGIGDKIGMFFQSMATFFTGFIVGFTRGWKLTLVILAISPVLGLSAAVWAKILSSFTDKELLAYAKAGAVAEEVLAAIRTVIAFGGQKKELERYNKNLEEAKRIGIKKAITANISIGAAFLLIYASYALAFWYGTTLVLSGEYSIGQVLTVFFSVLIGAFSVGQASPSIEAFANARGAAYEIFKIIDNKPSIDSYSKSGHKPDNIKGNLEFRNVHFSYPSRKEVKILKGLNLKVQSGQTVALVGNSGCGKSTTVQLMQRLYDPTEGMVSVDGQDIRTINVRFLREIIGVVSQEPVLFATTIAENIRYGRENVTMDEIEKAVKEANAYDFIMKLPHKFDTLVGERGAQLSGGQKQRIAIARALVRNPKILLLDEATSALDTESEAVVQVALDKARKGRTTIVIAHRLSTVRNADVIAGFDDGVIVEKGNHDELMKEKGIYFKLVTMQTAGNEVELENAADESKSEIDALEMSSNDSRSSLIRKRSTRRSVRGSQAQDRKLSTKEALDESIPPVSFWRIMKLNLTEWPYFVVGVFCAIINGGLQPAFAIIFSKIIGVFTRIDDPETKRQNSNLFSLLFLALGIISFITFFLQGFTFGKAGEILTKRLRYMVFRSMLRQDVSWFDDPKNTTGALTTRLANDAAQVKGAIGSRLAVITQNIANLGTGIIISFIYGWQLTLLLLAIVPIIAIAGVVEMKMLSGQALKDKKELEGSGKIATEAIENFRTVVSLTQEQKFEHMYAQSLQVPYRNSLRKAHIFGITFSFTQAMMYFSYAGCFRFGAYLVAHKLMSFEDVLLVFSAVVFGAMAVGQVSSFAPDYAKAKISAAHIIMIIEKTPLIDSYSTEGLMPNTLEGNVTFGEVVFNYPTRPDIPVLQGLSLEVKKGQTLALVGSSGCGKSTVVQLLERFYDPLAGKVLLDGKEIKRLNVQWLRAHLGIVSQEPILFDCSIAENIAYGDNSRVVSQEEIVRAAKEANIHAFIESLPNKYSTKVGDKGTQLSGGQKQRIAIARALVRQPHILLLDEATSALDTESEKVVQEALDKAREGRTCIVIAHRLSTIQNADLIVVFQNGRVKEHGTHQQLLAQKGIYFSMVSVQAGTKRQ

MATE2-K, sequence (Q86VL8 1-566 isoform Q86VL8-3): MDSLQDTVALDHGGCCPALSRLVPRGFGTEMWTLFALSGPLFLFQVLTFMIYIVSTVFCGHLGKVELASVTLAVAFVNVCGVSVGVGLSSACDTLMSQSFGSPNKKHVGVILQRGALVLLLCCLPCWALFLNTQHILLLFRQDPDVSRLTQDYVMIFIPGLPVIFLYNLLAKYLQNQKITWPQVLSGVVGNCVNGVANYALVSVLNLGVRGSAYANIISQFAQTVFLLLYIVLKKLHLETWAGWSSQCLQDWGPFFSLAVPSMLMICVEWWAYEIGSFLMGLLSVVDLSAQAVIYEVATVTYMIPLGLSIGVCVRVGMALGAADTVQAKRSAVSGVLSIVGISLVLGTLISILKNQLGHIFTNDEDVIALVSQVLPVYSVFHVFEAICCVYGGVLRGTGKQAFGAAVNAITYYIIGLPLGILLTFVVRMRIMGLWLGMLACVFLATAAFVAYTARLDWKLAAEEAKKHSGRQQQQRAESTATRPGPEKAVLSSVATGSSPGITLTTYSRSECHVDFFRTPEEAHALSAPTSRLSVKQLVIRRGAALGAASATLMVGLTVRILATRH

Uptake, MATE2-K (Average ± SD) (MATE2-K; MATE2-K HEK293 cells, inhibitor 300 μM): 32.3 ± 11.7 pmol/mg protein
% control (MATE2-K; inhibitor 300 μM): 18.1%
Background corrected uptake rate (MATE2-K; inhibitor 300 μM): 4.99 pmol/mg/min
Uptake, Control (Average ± SD) (MATE2-K; control HEK293 cells, inhibitor 300 μM): 7.34 ± 0.20 pmol/mg protein
% control (MATE1; HEK293 cells, inhibitor 10 μm): 19.3%
Background corrected uptake rate (MATE1; HEK293 cells, inhibitor 10 μm): 16.0 pmol/mg/min
Uptake, MATE1 (Average ± SD) (MATE1; MATE1 HEK293 cells, inhibitor 10 μm): 85.2 ± 7.8 pmol/mg protein
Uptake, Control (Average ± SD) (MATE1; control HEK293 cells, inhibitor 10 μm): 5.20 ± 0.63 pmol/mg protein
SMILES: CN/C(=N/CCSCc1nc[nH]c1C)NC#N [Cimetidine]

Papp Apical to basal (Average ± SD) (BCRP): 3.23e-05 cm/s
Papp Basal to apical (Average ± SD) (BCRP): 37.6 ± 1.6 ×10^−6 cm/sec
Papp Apical to basal (Average ± SD) (BCRP; MDCK): 13.3 ± 10.0 ×10^−6 cm/sec
Papp Basal to apical (Average ± SD) (BCRP; MDCK): 20.9 ± 4.7 ×10^−6 cm/sec
SMILES: Cc1cccc(C)c1OCC(=O)N[C@@H](Cc1ccccc1)[C@@H](O)C[C@H](Cc1ccccc1)NC(=O)[C@H](C(C)C)N1CCCNC1=O [Lopinavir]

% control (MATE2-K; inhibitor 0.3 μM): 50.6%
% control (MATE1; HEK293 cells, inhibitor 0.1 μm): 14.2%
SMILES: CCc1nc(N)nc(N)c1-c1ccc(Cl)cc1 [Pyrimethamine]

Papp A:B (Average ± SD) (P-gp): 9.12 ± 1.34 ×10^−6 cm/sec
Papp B:A (Average ± SD) (P-gp): 10.0 ± 2.5 ×10^−6 cm/sec
SMILES: C/C=C/C[C@@H](C)C(=O)[C@H]1C(=O)N[C@@H](C(C)C)C(=O)N(C)CC(=O)N(C)[C@@H](CC(C)C)C(=O)N[C@@H](C(C)C)C(=O)N(C)[C@@H](CC(C)C)C(=O)N[C@@H](C)C(=O)N[C@H](C)C(=O)N(C)[C@@H](CC(C)C)C(=O)N(C)[C@@H](CC(C)C)C(=O)N(C)[C@@H](C(C)C)C(=O)N1C [Valspodar]
